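Compound exposure: 48 hours, 5 concentrations, 96-well plates. Abbreviation: GI50, concentration required for 50% inhibition of growth.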 Activity calls are given as the source filed them. Cut-off read from the data, not from the text of the source: active = GI50 up to about 1.1 µM and inactive = higher.
Columns and labels:
Assay in all cases: NCI tumour cell line growth inhibition, 48 h
A549 = tested on: A549
CAKI-1 = tested on: CAKI-1
DU-145 = tested on: DU-145
HL-60 = tested on: HL-60
HT-29 = tested on: HT-29
LOX IMVI = tested on: LOX IMVI
MCF7 = tested on: MCF7
MDA-MB-231 = tested on: MDA-MB-231
Malme-3M = tested on: Malme-3M
NCI-H460 = tested on: NCI-H460
OVCAR-3 = tested on: OVCAR-3
OVCAR-8 = tested on: OVCAR-8
PC-3 = tested on: PC-3
SF-268 = tested on: SF-268
SK-MEL-28 = tested on: SK-MEL-28
SN12C = tested on: SN12C
SNB-19 = tested on: SNB-19
SNB-75 = tested on: SNB-75
UACC-62 = tested on: UACC-62
UO-31 = tested on: UO-31

Row | Compound | GI50 (A549) | GI50 (CAKI-1) | GI50 (DU-145) | GI50 (HL-60) | GI50 (HT-29) | GI50 (LOX IMVI) | GI50 (MCF7) | GI50 (MDA-MB-231) | GI50 (Malme-3M) | GI50 (NCI-H460) | GI50 (OVCAR-3) | GI50 (OVCAR-8) | GI50 (PC-3) | GI50 (SF-268) | GI50 (SK-MEL-28) | GI50 (SN12C) | GI50 (SNB-19) | GI50 (SNB-75) | GI50 (UACC-62) | GI50 (UO-31)
1 | N=c1c2c3n(c4c(=O)n(-c5ccccc5)c(=S)n(c(=O)n1-c1ccccc1)c24)CCCCC3 | > 100 µM (inactive) | > 100 µM (inactive) | > 100 µM (inactive) | > 100 µM (inactive) | > 100 µM (inactive) | > 100 µM (inactive) | > 100 µM (inactive) | > 100 µM (inactive) | > 100 µM (inactive) | > 100 µM (inactive) | > 100 µM (inactive) | > 100 µM (inactive) | > 100 µM (inactive) | > 100 µM (inactive) | > 100 µM (inactive) | > 100 µM (inactive) | > 100 µM (inactive) | > 63.1 µM (inactive) | > 100 µM (inactive) | > 100 µM (inactive)
2 | Nn1c(Sc2nc3ccccc3c(=O)n2N)nc2ccccc2c1=O | 14.2 µM (inactive) | 6.37 µM (inactive) | 20.2 µM (inactive) | 2.51 µM (inactive) | 3.4 µM (inactive) | 1.64 µM (inactive) | 4.1 µM (inactive) | 7.93 µM (inactive) | 3.57 µM (inactive) | 19.5 µM (inactive) | 11.1 µM (inactive) | 2.77 µM (inactive) | 11.7 µM (inactive) | 8.49 µM (inactive) | 4.84 µM (inactive) | 5.75 µM (inactive) | 6.92 µM (inactive) | 11.6 µM (inactive) | 11.5 µM (inactive) | 1.73 µM (inactive)
3 | Cc1ccc(C2(c3ccc(Cl)cc3)c3ccccc3C3=NCCN32)cc1 (stereo not given) | 11.1 µM (inactive) | 21.5 µM (inactive) | 13.2 µM (inactive) | 6.79 µM (inactive) | 1.89 µM (inactive) | 12.8 µM (inactive) | 1.44 µM (inactive) | 5.7 µM (inactive) | 3.67 µM (inactive) | 6 µM (inactive) | 10.3 µM (inactive) | 14.5 µM (inactive) | 8.3 µM (inactive) | 15.1 µM (inactive) | 14.7 µM (inactive) | 15.1 µM (inactive) | 13.7 µM (inactive) | 12.2 µM (inactive) | 7.1 µM (inactive) | 3.37 µM (inactive)
4 | O=C1c2ccccc2C(=O)N1CC1S(=O)(=O)OCCOS1(=O)=O | > 100 µM (inactive) | > 100 µM (inactive) | > 100 µM (inactive) | > 100 µM (inactive) | > 100 µM (inactive) | > 100 µM (inactive) | > 100 µM (inactive) | > 100 µM (inactive) | > 100 µM (inactive) | > 100 µM (inactive) | > 100 µM (inactive) | > 100 µM (inactive) | > 100 µM (inactive) | > 100 µM (inactive) | > 100 µM (inactive) | > 100 µM (inactive) | > 100 µM (inactive) | > 100 µM (inactive) | > 100 µM (inactive) | > 100 µM (inactive)
5 | Cc1ccc(N(C)S(=O)(=O)c2ccccc2)cc1 | > 100 µM (inactive) | > 100 µM (inactive) | > 100 µM (inactive) | > 10 µM (inactive) | > 100 µM (inactive) | > 100 µM (inactive) | > 100 µM (inactive) | 88.3 µM (inactive) | > 100 µM (inactive) | 87.9 µM (inactive) | > 100 µM (inactive) | > 100 µM (inactive) | 36.2 µM (inactive) | > 100 µM (inactive) | > 100 µM (inactive) | > 100 µM (inactive) | > 100 µM (inactive) | > 100 µM (inactive) | 84.5 µM (inactive) | > 100 µM (inactive)
6 | O=P(O)(O)CN1CCNCCN(CP(=O)(O)O)CCN(CP(=O)(O)O)CCNCC1 | 42600 µM (inactive) | 22500 µM (inactive) | > 100 µM (inactive) | 1.73 µM (inactive) | 31.3 µM (inactive) | 91800 µM (inactive) | > 100 µM (inactive) | > 100 µM (inactive) | 0.296 µM (active) | 42400 µM (inactive) | > 100 µM (inactive) | 83400 µM (inactive) | > 100 µM (inactive) | > 100000 µM (inactive) | > 100 µM (inactive) | > 100 µM (inactive) | > 100 µM (inactive) | 24.4 µM (inactive) | > 100 µM (inactive) | > 100 µM (inactive)

From ChEMBL document CHEMBL1201862, “PubChem BioAssay data set” (2004)
